Laboratory results taken from PubChem BioAssay AID2031 (NMMLSC, 2009).

What follows are compounds tested against Rab7 GTPase wild-type (dog), GST fusion (assay: analogs blocking nucleotide binding to wildtype Rab7 – biochemical, oxadiazole analogs, multiplex bead flow cytometry, SAR follow-up (AID 2031)). Conditions: bead-based flow cytometry, Bodipy-FL-GTP binding; Ki calculated from EC50.

SMILES	Ki [nM]
COc1cccc(-c2noc(CCC(=O)N3CCN(c4cc(C)ccc4C)CC3)n2)c1	220
Cc1ccc(C)c(N2CCN(C(=O)CCc3nc(-c4cccc(Br)c4)no3)CC2)c1	230
COc1ccc(-c2noc(CCC(=O)N3CCN(c4cccc(C)c4C)CC3)n2)cc1	100
COc1ccc(-c2noc(CCC(=O)N3CCN(c4ccccc4F)CC3)n2)cc1	40
COc1ccc(-c2noc(CCC(=O)N3CCN(c4ccccc4C(F)(F)F)CC3)n2)cc1	130
COc1ccc(-c2noc(CCCC(=O)N3CCN(c4cc(C)ccc4C)CC3)n2)cc1	940
Cc1ccc(C)c(N2CCN(C(=O)CCc3nc(-c4ccc(Cl)cc4)no3)CC2)c1	190
Cc1ccc(C)c(N2CCN(C(=O)CCc3nc(-c4ccccc4C)no3)CC2)c1	360
Cc1ccc(C)c(N2CCN(C(=O)CCc3nc(-c4cccc(F)c4)no3)CC2)c1	510
Cc1ccc(C)c(N2CCN(C(=O)CCc3nc(-c4ccccc4Br)no3)CC2)c1	270
Cc1ccc(C)c(N2CCN(C(=O)CCc3nc(-c4ccc(Br)cc4)no3)CC2)c1	100
COc1ccc(-c2cc(CCC(=O)N3CCN(c4cc(C)ccc4C)CC3)on2)cc1	20
Cc1ccc(C)c(N2CCN(C(=O)CCc3nc(-c4ccccc4)no3)CC2)c1	80
COc1ccc(-c2noc(CCC(=O)N3CCN(c4cccc(Cl)c4)CC3)n2)cc1	2030
COc1ccc(-c2noc(CCC(=O)N3CCC(c4cc(C)ccc4C)CC3)n2)cc1	90
Cc1ccc(C)c(N2CCN(C(=O)CCc3nc(-c4cccc(C(F)(F)F)c4)no3)CC2)c1	50
COc1ccc(-c2noc(CCC(=O)N3CCN(c4ccccc4Cl)CC3)n2)cc1	150
Cc1ccc(-c2noc(CCC(=O)N3CCN(c4cc(C)ccc4C)CC3)n2)cc1	290
Cc1ccc(C)c(N2CCN(C(=O)CCc3nc(-c4ccc(F)cc4)no3)CC2)c1	40
COc1ccc(-c2noc(CCC(=O)N3CCN(c4ccccc4Br)CC3)n2)cc1	150
Cc1cccc(-c2noc(CCC(=O)N3CCN(c4cc(C)ccc4C)CC3)n2)c1	70
COc1ccc(-c2noc(CCC(=O)N3CCN(c4cc(C)ccc4C)CC3)n2)cc1	160
